{
  "source": "patent US9937152B2",
  "about": "“Derivative of styrene-maleic acid copolymer” (priority 2013, dated 2018)",
  "key": {"in vivo": {"assay": "in vivo", "details": "mouse"}, "colon cancer (C26)": {"tested_on": "colon cancer (C26)", "type": "in vivo, Balb mice", "method": "SMA-THP and pirarubicin (THP) were administered intravenously to mice at the respective dose shown in Table 2 at Day 10 from the inoculation of cancer in mice, and the antitumor effect was evaluated at Day 50. Subsequently, 5×10^5 colon cancer (C26) cells were inoculated in the back in Balb mice and the model animals with tumor size of 5 to 6 mm at about Day 7 to 9 were treated."}, "[1]": {"details": "dose 3 mg/kg (MTD amount) i.v. at Day 10, evaluated at Day 50"}},
  "data": [
    {"smiles": "COc1cccc2c1C(=O)c1c(O)c3c(c(O)c1C2=O)C[C@@](O)(C(=O)CO)C[C@@H]3O[C@H]1C[C@H](N)[C@H](O[C@@H]2CCCCO2)[C@H](C)O1", "note": "[THP, pirarubicin]", "values": [
      {"measurement": "MTD", "setting": "in vivo; Balb, iv", "value": 3, "unit": "mg/kg"},
      {"measurement": "LD50", "setting": "in vivo", "value": 14.4, "unit": "mg/kg"},
      {"measurement": "Number of Metastatic Cancerous Nodes/Mouse: (1~5) (+), mice/group", "setting": "colon cancer (C26); [1]", "value": "2/5"},
      {"measurement": "Number of Metastatic Cancerous Nodes/Mouse: (>6) (++), mice/group", "setting": "colon cancer (C26); [1]", "value": "3/5"},
      {"measurement": "Number of Metastatic Cancerous Nodes/Mouse: No Metastasis (−), mice/group", "setting": "colon cancer (C26); [1]", "value": "0/5"},
      {"measurement": "effect on the metastatic cancers", "setting": "colon cancer (C26); maximum tolerated dose of 3 mg/kg", "value": "almost ineffective"}
    ]}
  ]
}
